The values below come from patent US9562053B2, “Benzo-fused heterocyclic derivatives useful as agonists of GPR120” (Janssen Pharmaceutica NV, priority 2013, dated 2017).

For this experiment, the target named is T1, long form of human GPR120 (Homo sapiens, UniProt Q5NUL3).
T1 construct: host or cells: PathHunter CHO-K1 GPR120 β-Arrestin Cell Line
T1 sequence (Q5NUL3 1-377 isoform Q5NUL3-1): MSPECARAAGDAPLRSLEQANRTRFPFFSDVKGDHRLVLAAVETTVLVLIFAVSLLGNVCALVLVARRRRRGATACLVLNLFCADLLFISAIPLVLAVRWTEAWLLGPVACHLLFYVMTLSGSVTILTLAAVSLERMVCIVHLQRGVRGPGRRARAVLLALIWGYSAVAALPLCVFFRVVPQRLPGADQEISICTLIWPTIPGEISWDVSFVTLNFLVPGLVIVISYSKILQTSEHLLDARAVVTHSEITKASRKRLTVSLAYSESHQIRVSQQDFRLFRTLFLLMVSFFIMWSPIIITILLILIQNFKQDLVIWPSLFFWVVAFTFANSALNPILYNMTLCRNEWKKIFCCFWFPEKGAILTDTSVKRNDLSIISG
Description: Human GPR120 DiscoveRx PathHunter Beta-Arrestin Assay, Procedure β-arrestin A (3000 cells per well). Format: cell-based. The settings on record: read-out: GPR120 B-arrestin A EC50. The text has this:
The binding of an agonist (medium/long chain fatty acids or small molecule agonists) to the G-protein-coupled receptor GPR120 activates phospholipase C, leading to release of intracellular Ca^+2 through the generation of inositol 1,4,5-trisphosphate (InsP3 or IP3). GPR120 activation can also trigger intracellular signaling via recruitment of β-Arrestin. In the present method, agonist-induced activation of the human GPR120 receptor is monitored through the use of PathHunter CHO-K1 GPR120 β-Arrestin Cell Line engineered by DiscoveRx, as detailed below. The cell lines are designed to co-express both the ProLink/Enzyme Donor (PK)-tagged GPCR and the Enzyme Activator (EA)-tagged β-Arrestin fusion proteins. Upon GPR120 receptor stimulation/activation, the EA-tagged β-Arrestin portion is translocated to the tagged receptor, where the two enzyme fragments are brought within close proximity. Under these conditions, these fragments can interact and form an active Beta-gal enzyme complex through Enzyme Fragment Complementation (EFC). This active Beta-gal complex can enzymatically hydrolyse the substrate to produce a detectable light signal; therefore, activation as a function of agonist concentration can be expressed as an EC50 value to determine relative compound activities. This in vitro assay therefore serves to assess compound agonist activity of the GPR120.
In Procedure β-arrestin A, the cell used were PathHunter CHO-K1 GPR120 β-Arrestin Cell Line, expressing the long form of human GPR120 (Genbank accession number NM_181745), with 3000 cells per well.
The selected CHO-K1 GPR120 β-Arrestin cells were cultured in Ham's F12 media supplemented with 10% fetal bovine serum (FBS), 1% Glutamine, 1×p/s, 800 μg/ml G418 and 300 μg/ml Hygromycin B (for selection). Cell stocks were maintained and grown in a sub-confluent state using standard cell culture procedures. The day before the experiment, the cells were harvested with non-enzymatic cell dissociation buffer and re-suspended in complete growth media at the desired concentration. A Corning 384-plate was then seeded with the proper number of cells in a volume of 25 μL, per well. The seeded plates were incubated overnight at 37° C.
On the day of the experiment, the Assay Buffer containing (a) HBSS with Ca^++ and Mg^++, (b) 20 mM HEPES, and (c) 0.1% BSA stabilizer (pH 7.4) was prepared. The growth medium was gently removed from the cell plates and 20 μL of Assay Buffer added to each well. The plate was then incubated at 37° C. for 60 mins. Test compounds were serially diluted in Assay Buffer to desired concentrations (more particularly, to one or more of the following μM concentrations: 25 μM, 12.5 μM, 6.25 μM, 3.125 μM, 1.562 μM, 0.781 μM, 0.391 μM, 0.195 μM, 0.098 μM, 0.049 μM, 0.024 μM, 0.012 μM). Five μl of compound dilution was then added to each well and the plate incubated at 37° C. for 90 mins. The detection reagents were prepared according to the manufacture's instruction. Twelve μL of the detection reagents were added to each well and the plate incubated at room temperature for 60 mins.
The plates were read on an EnVision instrument, using Protocol name: Luminescence, Plate type: 384 Costar, Measurement height: 3 mm, Measurement time: 1 s, Aperture: 384 Plate aperture. The % activity relative to the positive control was calculated using the following equation:
The % Activity values were plotted versus the concentration of test compound and fitted to a sigmoidal dose-response curve with a Hill slope=1 (fixed value) using nonlinear regression with GraphPad Prism 5.0 to calculate the EC50 values. The Fitting Equation was: Y=Bottom+(Top−Bottom)/(1+10^((LogEC50−X)*HillSlope)), where X is the log of the concentration and Y is the response.
A word on the EC50: it is the concentration giving half of the maximal effect. `CC#Cc1cc(COc2ccc(CCC(=O)O)c(C)c2C)c2oc(C)cc2c1` [Compound 83, 3-{2,3-Dimethyl-4-[(2-methyl-5-prop-1-yn-1-yl-1-benzofuran-7-yl)methoxy]phenyl}propanoic acid]: the EC50 was 440 nM.
In the case of `CCc1cc2cc(Br)cc(COc3ccc(CCC(=O)O)c(C)c3C)c2o1` [Compound 45, 3-{4-[(5-Bromo-2-ethyl-1-benzofuran-7-yl)methoxy]-2,3-dimethylphenyl}propanoic acid] it was 95 nM; in that of `Cc1cc2cc(Cl)cc(COc3ccc(CCC(=O)O)c(C)c3C)c2s1` [Compound 91, 3-{4-[(5-Chloro-2-methyl-1-benzothiophen-7-yl)methoxy]-2,3-dimethylphenyl}propanoic acid], 629 nM; in that of `Cc1cc2cc3c(c(COc4ccc(CCC(=O)O)c(C)c4C)c2o1)OCCO3` [Compound 90, 3-{2,3-Dimethyl-4-[(7-methyl-2,3-dihydrofuro[2,3-g][1,4]benzodioxin-5-yl)methoxy]phenyl}propanoic acid], 532 nM.
In the case of `CCc1cc2cc(Cl)c(OCC(C)C)c(COc3ccc(CCC(=O)O)c(C)c3C)c2o1` [Compound 67, 3-(4-{[5-Chloro-2-ethyl-6-(2-methylpropoxy)-1-benzofuran-7-yl]methoxy}-2,3-dimethylphenyl)propanoic acid] it was 221 nM.
Next, `Cc1c(CCC(=O)O)ccc(OCc2cc(F)cc3cc(C(C)C)oc23)c1C` [Compound 22, 3-(4-{[5-Fluoro-2-(1-methylethyl)-1-benzofuran-7-yl]methoxy}-2,3-dimethylphenyl)propanoic acid]: 797 nM; `CCc1cc2cc(Cl)c(OCC(F)(F)F)c(COc3ccc(CCC(=O)O)c(C)c3C)c2o1` [Compound 64, 3-(4-{[5-Chloro-2-ethyl-6-(2,2,2-trifluoroethoxy)-1-benzofuran-7-yl]methoxy}-2,3-dimethylphenyl)propanoic acid]: 271 nM; `Cc1cc2cc(OC(F)(F)F)cc(COc3ccc(CCC(=O)O)c(C)c3C)c2o1` [Compound 36, 3-(2,3-Dimethyl-4-{[2-methyl-5-(trifluoromethoxy)-1-benzofuran-7-yl]methoxy}phenyl)propanoic acid]: 85 nM.
With `CCc1cc2ccc(OC(F)F)c(COc3ccc(CCC(=O)O)c(C)c3C)c2o1` [Compound 70, 3-(4-{[6-(Difluoromethoxy)-2-ethyl-1-benzofuran-7-yl]methoxy}-2,3-dimethylphenyl)propanoic acid], the EC50 worked out at 2500 nM.
On to `CCCc1cc2cc(C(F)(F)F)cc(COc3ccc(CCC(=O)O)c(C)c3C)c2o1` [Compound 37, 3-(2,3-Dimethyl-4-{[2-propyl-5-(trifluoromethyl)-1-benzofuran-7-yl]methoxy}phenyl)propanoic acid], for which the EC50 is 271 nM.
On to `Cc1c(CCC(=O)O)ccc(OCc2cc(Cl)cc3cc(CC(F)F)oc23)c1C` [Compound 87, 3-(4-{[5-Chloro-2-(2,2-difluoroethyl)-1-benzofuran-7-yl]methoxy}-2,3-dimethylphenyl)propanoic acid], for which the EC50 amounted to 409 nM.
On to `CCCc1cc2cc(OC(F)(F)F)cc(COc3ccc(CCC(=O)O)c(C)c3C)c2o1` [Compound 35, 3-(2,3-Dimethyl-4-{[2-propyl-5-(trifluoromethoxy)-1-benzofuran-7-yl]methoxy}phenyl)propanoic acid], for which the EC50 was found to be 190 nM.
Regarding `Cc1cc2cc(Cl)cc(COc3c(F)cc(CCCO)cc3F)c2s1` [Compound 93, 3-{4-[(5-Chloro-2-methyl-1-benzothiophen-7-yl)methoxy]-3,5-difluorophenyl}propan-1-ol], the EC50 stood at 536 nM.
On to `CCc1cc2cc(Cl)c(OCCOC)c(COc3ccc(CCC(=O)O)c(C)c3C)c2o1` [Compound 63, 3-(4-{[5-Chloro-2-ethyl-6-(2-methoxyethoxy)-1-benzofuran-7-yl]methoxy}-2,3-dimethylphenyl)propanoic acid], for which the EC50 came to 231 nM.
As for `CCc1cc2cc(Cl)c(CC)c(COc3ccc(CCC(=O)O)c(C)c3C)c2o1` [Compound 61, 3-{4-[(5-Chloro-2,6-diethyl-1-benzofuran-7-yl)methoxy]-2,3-dimethylphenyl}propanoic acid], the EC50 turned out to be 190 nM.
As for `CCc1cc2cc(Cl)c(OC(F)F)c(COc3ccc(CCC(=O)O)c(C)c3C)c2o1` [Compound 69, 3-(4-{[5-Chloro-6-(difluoromethoxy)-2-ethyl-1-benzofuran-7-yl]methoxy}-2,3-dimethylphenyl)propanoic acid], the EC50 amounted to 223 nM.
`CCc1cc2cc(OC(F)(F)F)cc(COc3ccc(CCC(=O)O)c4c3CCC4)c2o1` [Compound 52, 3-(7-{[2-Ethyl-5-(trifluoromethoxy)-1-benzofuran-7-yl]methoxy}-2,3-dihydro-1H-inden-4-yl)propanoic acid]: the EC50 was determined as 374 nM.
In the case of `Cc1c(CCC(=O)O)ccc(OCc2cc(F)cc3cc(CC(C)C)oc23)c1C` [Compound 23, 3-(4-{[5-Fluoro-2-(2-methylpropyl)-1-benzofuran-7-yl]methoxy}-2,3-dimethylphenyl)propanoic acid], the EC50 came to 470 nM.
As for `CCCc1cc(OCc2cc(OC(F)(F)F)cc3cc(CC)oc23)c(F)cc1CCC(=O)O` [Compound 50, 3-(4-{[2-Ethyl-5-(trifluoromethoxy)-1-benzofuran-7-yl]methoxy}-5-fluoro-2-propylphenyl)propanoic acid], the EC50 came to 496 nM.
Next, `CCc1cc2cc(Cl)c(C)c(COc3ccc(CCC(=O)O)c(C)c3C)c2o1` [Compound 40, 3-{4-[(5-Chloro-2-ethyl-6-methyl-1-benzofuran-7-yl)methoxy]-2,3-dimethylphenyl}propanoic acid]: 107 nM.
Turning to `COCc1cc2cc(F)cc(COc3ccc(CCC(=O)O)c(C)c3C)c2o1` [Compound 21, 3-(4-{[5-Fluoro-2-(methoxymethyl)-1-benzofuran-7-yl]methoxy}-2,3-dimethylphenyl)propanoic acid], the EC50 stood at 458 nM.
With `CCc1cc2cc(OC(F)F)cc(COc3ccc(CCC(=O)O)c(C)c3C)c2o1` [Compound 57, 3-(4-{[5-(Difluoromethoxy)-2-ethyl-1-benzofuran-7-yl]methoxy}-2,3-dimethylphenyl)propanoic acid], the EC50 turned out to be 77 nM.
In the case of `Cc1c(CCC(=O)O)ccc(OCc2cc(F)cc3cc(C(F)F)oc23)c1C` [Compound 32, 3-(4-{[2-(Difluoromethyl)-5-fluoro-1-benzofuran-7-yl]methoxy}-2,3-dimethylphenyl)propanoic acid] it was 2910 nM; in that of `Cc1cc2c(COc3ccc(CCC(=O)O)c(C)c3C)cc(Cl)cc2o1` [Compound 81, 3-{4-[(6-Chloro-2-methyl-1-benzofuran-4-yl)methoxy]-2,3-dimethylphenyl}propanoic acid], 817 nM; in that of `CC#Cc1cc(COc2ccc(CCC(=O)O)c(C)c2C)c2oc(CCC)cc2c1` [Compound 58, 3-{2,3-Dimethyl-4-[(2-propyl-5-prop-1-yn-1-yl-1-benzofuran-7-yl)methoxy]phenyl}propanoic acid], 410 nM.
